Test results as given in patent publication US11324720B2, “Antiproliferative DNA polymerase inhibitor” (NEW YORK MEDICAL COLLEGE, priority 2018, dated 2022).

Key:
Type in all cases: cell-based, human
BxPC-3 cells [1] = test: Cell proliferation assay, MTT method
Source text: (§1) DNA replication precedes cell division. Thus, cancer cells cannot divide and proliferate without successful chromosomal duplication. A DNA polymerase inhibitor should inhibit cancer cell proliferation. We characterized the antiproliferative properties of zelpolib on a number of cell lines originated from pancreatic cancer (BxPC-3) and breast cancer (MCF7 for ER+ breast cancer). In addition, we developed a cisplatin resistant subline of a pancreatic cancer cell line, R-BxPC3 for our studies as well. We used the MTT method^25 for analyzing cell proliferation. This assay is based on the reduction of 3-(4,5-dimethylthiazol-2-yl)-2,5-diphenyltetrazolium bromide by live cells to an insoluble formazon, which were subsequently dissolved in DMSO and quantified by UV absorbance. Therefore, the cell number is proportional to the optical density in the established linear region. […] The plateau phenomena indicate inhibition of proliferation without cell killing, similar to these observed from hydroxyurea^26, aphidicolin^27, and to a certain extent, methotrexate treatments^28. Direct inhibition of DNA polymerase activity provides a unique mechanism that is not employed by any of the current cancer therapeutics. We selected a number of most widely prescribed chemotherapeutics with distinct mechanisms to compare their antiproliferative potential in the 2 cancer cell lines. We included alkylating agent cisplatin, antimetabolites methotrexate and 5-flourouracil (5FU)^29-31. […] Whereas the comparison with cisplatin is biphasic.
(§2) Human cancer cells (5×10^3-7.5×10^3) were initially seeded in 96-well plates (Cellstar) containing 0.2 ml media per well. After 24 hrs, these cells were treated with variable concentrations drug combinations for 48-72 hrs. Subsequently, 4,5-dimethylthiazol-2-yl-2,5-diphenyltetrazolium bromide (MTT) (20 μl of 5 mg/ml) was added to each well for 3 hrs. Formazan crystals were then dissolved in 150 μl DMSO and optical density was read at 490 nm^25. All experiments were performed in triplicates. Results were analyzed by GraphPad Prism. Data represent mean value±SEM for each concentration of inhibitor combinations.

MCF7 cells = test: Cell proliferation assay, MTT method
Source text: as §1, §2

HEK 293T cells = test: Two plasmid DR-GFP/I-SceI double strand break repair (homologous recombination) assay
Source text: In addition to being indispensable for the duplication of chromosomes, Pol δ also plays critical roles in various DNA repair pathways^32. It has been shown that Pol δ is the preferred polymerase for the D-loop extension during homologous recombination repair^33. Thus, we investigated the effect of zelpolib on HR efficiency. We used the two plasmid DR-GFP assay developed by Nakanishi et al^34, which is a modified version of the initial method^35. The first plasmid contains a mutant GFP that has lost the ability to fluoresce. The second plasmid contains the coding region of a restriction enzyme, I-SceI. The co-transfection of the two plasmids will result in the expression of I-SceI, which can digest the DR-GFP plasmid at the mutation site leading to the formation of a double strand break. […] Therefore, the percentage of fluorescent cells is the readout of the efficacy of HR. […] The efficacy of HR was analyzed about 40 hours later by flow cytometry.
The efficacy of homologous recombination was analyzed by a two-plasmids system according to published protocol^34,35. […] Cellular fluorescence for GFP was measured by flow cytometry (Beckman coulter, MoFlo XDP). About 32,000 cells were analyzed per sample. […] The experiment was repeated three more times and statistics were calculated using GraphPad prism software.

R-BxPC-3 cells = test: Cell proliferation assay, MTT method; settings: R-BxPC-3 (cisplatin resistant)
Source text: DNA replication precedes cell division. Thus, cancer cells cannot divide and proliferate without successful chromosomal duplication. A DNA polymerase inhibitor should inhibit cancer cell proliferation. We characterized the antiproliferative properties of zelpolib on a number of cell lines originated from pancreatic cancer (BxPC-3) and breast cancer (MCF7 for ER+ breast cancer). In addition, we developed a cisplatin resistant subline of a pancreatic cancer cell line, R-BxPC3 for our studies as well. We used the MTT method^25 for analyzing cell proliferation. This assay is based on the reduction of 3-(4,5-dimethylthiazol-2-yl)-2,5-diphenyltetrazolium bromide by live cells to an insoluble formazon, which were subsequently dissolved in DMSO and quantified by UV absorbance. Therefore, the cell number is proportional to the optical density in the established linear region. […] The plateau phenomena indicate inhibition of proliferation without cell killing, similar to these observed from hydroxyurea^26, aphidicolin^27, and to a certain extent, methotrexate treatments^28. […]
Human cancer cells (5×10^3-7.5×10^3) were initially seeded in 96-well plates (Cellstar) containing 0.2 ml media per well. […] Formazan crystals were then dissolved in 150 μl DMSO and optical density was read at 490 nm^25. […] Results were analyzed by GraphPad Prism. […]

HCC1395 cells = test: DNA fiber fluorography dual labeling (IdU/CldU); settings: all three concentrations, zelpolib added with CldU for 60 min
Source text: (§3) In our search for Pol δ inhibitors, we focused on the identification of inhibitors that can inhibit Pol δ when it is actively replicating DNA. DNA fiber fluorography with dual labeling technique^24 provides a possibility that we can analyze the effect of zelpolib on ongoing DNA replication at a single molecule level. Both IdU and CldU are halogenated thymidine analogs that can be incorporated into DNA. Subsequent DNA fiber spreading and antibody detection are used to directly visualize the replicated DNA fiber. The incorporation of IdU gives rise to red fibers and CldU produces green fibers with subsequent antibody detection^24. Therefore, in this assay, the cells were first incubated with IdU for 20 minutes in the absence of zelpolib (FIG. 3B) to establish ongoing DNA replication and the basal replication rates of each individual DNA fibers. Subsequently, CldU were added to cell culture either with or without simultaneous addition of zelpolib. DNA replication were allowed for an additional hour. […] In order to be certain that this inhibition was not cell line dependent, we conducted an identical experiment on a triple-negative breast cancer cell line as well. […] The DNA fibers (FIG. 3C) from a single field of view (FIG. 9) were realigned for visual comparison.
(§4) To analyze the effect of zelpolib, DNA fiber fluorography was used with dual labeling technique as reported. Cells were seeded in 6-well plates (Cellstar) and allowed to attach for 24 hours before pulse labeled with 25 μM IdU for 20 min. Subsequently, cells were washed three times with PBS and pulse labeled with 250 μM of CldU (Sigma) for 60 min in the presence or absence of zelpolib. Cell lysis and fiber spreading were conducted according to Schwab & Niedzwiedz. IdU and CldU were detected by primary mouse anti-BrdU antibody (BD biosciences, 1:25) and rat anti-BrdU antibody (Abcam, 1:200) and secondary fluorescent antibodies Alexa anti-mouse 594 (ThermoFisher scientific, 1:625) and Alexa anti-rat 488 (ThermoFisher scientific, 1:200). DNA fibers were imaged on fluorescence microscope and fiber lengths were measured using Image-J software. Statistics were calculated using GraphPad prism software.

BxPC-3 cells [2] = test: DNA fiber fluorography dual labeling (IdU/CldU)
Source text: as §3, §4

COC(=O)c1cc(-c2ccccc2)sc1NC(=S)NNC(=O)CCc1ccc(O)c(O)c1 [zelpolib]
antiproliferative activity compared with cisplatin (BxPC-3 cells [1]; BxPC-3, MTT): superior to cisplatin up to 10 μM
antiproliferative activity compared with methotrexate and 5-FU (BxPC-3 cells [1]; BxPC-3, MTT): superior to methotrexate and 5-FU at all concentrations
concentration at which antiproliferative effect reaches a plateau (BxPC-3 cells [1]; BxPC-3, MTT): about 5 μM
cytotoxicity (BxPC-3 cells [1]; zelpolib alone, cell lines not specified): minimal cell cytotoxicity
concentration at which antiproliferative effect reaches a plateau (MCF7 cells): about 5 μM
antiproliferative activity compared with methotrexate and 5-FU (MCF7 cells; 72 h): superior to methotrexate and 5-FU across the concentration range
antiproliferative activity, zelpolib versus cisplatin (MCF7 cells; 72 h): at least as effective as cisplatin in inhibiting MCF7 cell growth up to 5 μM
reduction in HR efficacy (HEK 293T cells; 20 μM zelpolib): comparable to those induced by siRNA knockdown of BRCA1 or BRCA2 individually
inhibition of homologous recombination (percentage of GFP fluorescent cells) (HEK 293T cells; two concentrations, about 40 hours): dose-dependent inhibition of HR
concentration at which antiproliferative effect reaches a plateau (R-BxPC-3 cells): about 5 μM
inhibition of ongoing DNA replication (green/red fiber length ratio) (HCC1395 cells): significant inhibition of ongoing DNA replication
inhibition of DNA fiber extension (BxPC-3 cells [2]; 20 μM, 60 minutes exposure, cell line not stated): about 40%
inhibition of ongoing cellular DNA replication (green/red fiber length ratio) (BxPC-3 cells [2]; BxPC-3, zelpolib added with CldU for 60 min): concentration dependent inhibition of ongoing cellular DNA replication
cellular uptake time (BxPC-3 cells [2]; inferred from fiber inhibition at 20 μM with 60 minutes total exposure): less than 30 minutes
